This is an account of results in patent US10576069B2, “Treatment for chemotherapy-induced cognitive impairment” (Panacea Pharmaceutical Inc., priority 2013, dated 2020).

Series [1] has as its system MCAo infarct formation, brain edema, mortality. To be noted: single i.v. bolus, 2 mg/kg, two-hour MCAo; cited from earlier work.
The test system of series [2] is hydrogen peroxide-induced LDH release. The conditions noted are these: PAN-811 at 10 μM; compared with untreated and H2O2-insulted group; cited from earlier work.
Series [3] relates to mouse liver cancer cell line BNLT3. The series is described as follows: MTS analysis of BNLT3 cancer cells. To be noted: BNLT3, 3 days, 10 μM PAN-811 or both. Type of series: cell-based. The protocol: (§1) Cancer Cell Culture. The mouse liver cancer cell line BNLT3 (gift of Dr. Jack Wands, Brown University) and the human lung cancer cell line H460 (ATCC) were seeded into 96-well plates at a density of 4,000 cells/well and cultured at 37° C., 5% CO2, in DMEM (11965, Gibco) supplemented with 10% fetal bovine serum, 20 mM HEPES, 1 mM sodium pyruvate, and […] gentamycin (all reagents came from Gibco).
(§2) Cell Insults and Treatments. Determination of concentration for each anticancer drug in our experiments was based on its reported concentration in human cerebral spinal fluid (CSF) in chemotherapy, literature report of its neurotoxicity in culture, and our preliminary in vitro experimental data. […] For ROS examination, the neurons were insulted with both 100 μM of MTX and 25 μM of 5-FU by 15 d.i.v. PAN-811.Cl.H2O was added to cultures to final concentrations of 1.25, 2.5, 5, and 10 μM at the same time as addition of the anticancer drugs.
(§3) Quantitative Assays and Morphological Assessment. Cell membrane integrity and mitochondrial function of either neurons or cancer cells were measured with LDH and 3-(4,5-dimethylthiazol-2-yl)-5-(3-carboxymethoxyphenyl)-2-(4-sulfophenyl)-2H-tetrazolium [MTS] analyses, respectively. The latter has been used to quantify cell survival. For the LDH assay, a mixture of a 35 μL aliquot of culture supernatant and 17.5 μL of Mixed Substrate, Enzyme and Dye Solutions (Sigma) was incubated at room temperature (RT) for 30 minutes. For the MTS assay, 10 μL of MTS reagent (Promega) was added to a culture well containing neurons in 50 μL of medium. […] The preparations for both assays were then spectrophotometrically measured at 490 nm using a 96-well plate reader (Mode 550, Bio-Rad). Neuronal cell death was morphologically determined based on the integrity of the cell soma and continuity of neuronal processes. […]
Data Analysis. Data were generated from 4-6 replicate wells, expressed as mean±standard deviation (SD), and statistically evaluated at a significance level of 1% with one factor ANOVA or Student's t-test by using software […] […]

The subject of series [4] is human lung cancer cell line H460. The series is described as follows: LDH analysis (membrane integrity) of H460 cancer cells. To be noted: H460, 3 days. Type of series: cell-based. As for the experimental part: as §1, §2
Quantitative Assays and Morphological Assessment. Cell membrane integrity and mitochondrial function of either neurons or cancer cells were measured with LDH and 3-(4,5-dimethylthiazol-2-yl)-5-(3-carboxymethoxyphenyl)-2-(4-sulfophenyl)-2H-tetrazolium [MTS] analyses, respectively. The latter has been used to quantify cell survival. For the LDH assay, a mixture of a 35 μL aliquot of culture supernatant and 17.5 μL of Mixed Substrate, Enzyme and Dye Solutions (Sigma) was incubated at room temperature (RT) for 30 minutes. For the MTS assay, 10 μL of MTS reagent (Promega) was added to a culture well containing neurons in 50 μL of medium. The preparations were incubated at 37° C. for 2 hours. The preparations for both assays were then spectrophotometrically measured at 490 nm using a 96-well plate reader (Mode 550, Bio-Rad). Neuronal cell death was morphologically determined based on the integrity of the cell soma and continuity of neuronal processes. The change in number of cancer cells was judged directly by cell density. Cells were photographed under an inverted phase contrast microscope (IX 70, Olympus) using 10× or 20× objective.
Data Analysis. Data were generated from 4-6 replicate wells, expressed as mean±standard deviation (SD), and statistically evaluated at a significance level of […] with one factor ANOVA or Student's t-test by using software […] (http://vassarstats.net/) followed by the Tukey HSD test. Figure symbols are as follows: #, P<0.05, and ##, P<0.01, compared with control; *, P<0.05, and **, P<0.01, compared with the insulted group; §§, P<0.01, compared with PAN-811 treated group by Student's t-test.

Series [5] shares this test system. The series is described as follows: MTS analysis of H460 cancer cells. To be noted: H460, 3 days; 3.5 μM CDDP, 10 μM PAN-811 or both; FIG. 5(d). The class given is cell-based. The protocol: as §1
Cell Insults and Treatments. Determination of concentration for each anticancer drug in our experiments was based on its reported concentration in human cerebral spinal fluid (CSF) in chemotherapy, literature report of its neurotoxicity in culture, and our preliminary in vitro experimental data. […]
as §3, with “survival.” for “survival. For the LDH assay, a mixture of a 35 μL aliquot of culture supernatant and 17.5 μL of Mixed Substrate, Enzyme and Dye Solutions (Sigma) was incubated at room temperature (RT) for 30 minutes. For the MTS assay, 10 μL of MTS reagent (Promega) was added to a culture well containing neurons in 50 μL of medium.”

Series [6] concerns mixed cortical and striatal neurons. The series is described as follows: LDH analysis (cell membrane leakage) of neurons insulted with anticancer drugs. The conditions noted are these: MTX 100 μM, 5-FU 25 μM, CDDP 3.5 μM. Type of series: cell-based. The protocol: Neuronal Cell Culture. Mixed cortical and striatal neurons from embryonic day 17 male Sprague-Dawley rats (tissue obtained from NIH) were seeded into poly-D-lysine coated 96-well plates at density of 50,000 cells/well and initially cultured at 37° C., 5% CO2, in neurobasal medium (NB) with B27 supplement (Invitrogen) containing full strength of AOs to obtain highly enriched (95%) neurons. Since AOs, including vitamin E, vitamin E acetate, superoxide dismutase (SOD), catalase (CAT), and GSH, are additives to culture medium, reduction of AO concentration in culture medium provides an approach to determine the level of OS involvement in a neurotoxic process. […]
as §3, with “survival.” for “survival. For the LDH assay, a mixture of a 35 μL aliquot of culture supernatant and 17.5 μL of Mixed Substrate, Enzyme and Dye Solutions (Sigma) was incubated at room temperature (RT) for 30 minutes. For the MTS assay, 10 μL of MTS reagent (Promega) was added to a culture well containing neurons in 50 μL of medium.”

Setting [7] is: 3.5 μM CDDP, 10 μM PAN-811 or both, FIG. 5(g).
[8] abbreviates: 25 μM 5-FU, 10 μM PAN-811 or cotreatment, FIG. 5(f).
Setting [9] is: 100 μM MTX or 10 μM PAN-811, FIG. 5(e).

Regarding `NC(=S)N/N=C/c1ncccc1N` [PAN-811, 3-aminopyridine-2-carboxaldehyde thiosemicarbazone], in series [1], the “maximal protection (reduction of infarct volume)” value is recorded as 50%. Also, the “maximal protection against hydrogen peroxide-induced LDH release” value in series [2] is 90%. Moreover, the “reduction of MTS reading” value is recorded as 94% in series [3] (3.5 μM CDDP, FIG. 4(f)) and “the same level as MTX” in series [3] (100 μM MTX, FIG. 4(d)). Also, the “increase in LDH reading in the culture supernatant” value in series [4] (setting [7]) was found to be 30%; in series [4] (setting [8]), 30%; in series [4] (setting [9]), 31%.
`O=c1[nH]cc(F)c(=O)[nH]1` [5-FU, 5-fluorouracil]: the “increase in LDH reading in the culture supernatant” value in series [4] (setting [8]) is 124%.
`N.N.[Cl][Pt][Cl]` [CDDP]: the “reduction of MTS reading” value is 44% in series [3] (3.5 μM CDDP, FIG. 4(f)) and 22% in series [5]. Besides, the “LDH increase in culture supernatant (cell membrane leakage)” value in series [6] (neurons in 25% AO, 3 days, FIG. 1(c)) is given as “significant LDH increase”. In series [6] (neurons, 12.5% AO condition, FIG. 2(b)), the “increase in LDH reading” value was “significant increases in LDH reading”. For the same molecule, the “increase in LDH reading in the culture supernatant” value in series [4] (setting [7]) is listed as 71%.
In the case of `CN(Cc1cnc2nc(N)nc(N)c2n1)c1ccc(C(=O)N[C@@H](CCC(=O)O)C(=O)O)cc1` [MTX, methotrexate], the “increase in LDH reading in the culture supernatant” value in series [4] (setting [9]) was found to be 95%.
